The text below walks through data of patent US20110076240A1, “Antifungal and Anti-Cariogenic Cellobio-Oligosaccharides Produced by Dextransucrase” (priority 2008, published 2011).

The test concerns mutansucrase. As to the kind of experiment: Inhibition of water insoluble glucan synthesis (absorbance at 550 nm; adherence to glass vials). Format: biochemical, Streptococcus mutans and S. sorbrinus. As to conditions: 50 mM test substance, 1 M sucrose, 37° C., 48 h. How it is done:
Isolation of Oral Bacteria and Production of Mutansucrase: Oral bacteria were collected by a cotton swab from human teeth and streaked onto a brain heart infusion (BHI) agar containing 4% sucrose. The culture was grown at 37° C. until visible colonies of Streptococcus mutans and S. sorbrinus appeared. The colonies were grown in 1 L BHI at 37° C. with shaking at 150 rpm for 24-36 h to induce production of mutansucrase secreted outside the cell membrane. After incubation, the culture was harvested by centrifugation, and the supernatant with the mutansucrase was concentrated to 100 ml using a 30 K cut-off membrane filter. One unit of mutansucrase in the concentrated supernatant was defined as the amount of enzyme that catalyzes the formation of 1 μmol of fructose per minute at 37° C., pH 7.0, from 100 mM sucrose.
These cultures were grown in glass vials at 37° C. for 48 h.
The supernatants of individual reaction mixtures were discarded such that the insoluble glucans remained in the vial. To compare the amount of insoluble glucans produced, the synthesized glucans on the glass were washed with a HEPES buffer and dissolved in 0.5 N NaOH. The resulting wash was used to measure the soluble glucans. The absorbance of water insoluble glucans was measured at 550 nm. For visualization, synthesized glucans were dyed with a drop of dental disclosing solution.

Molecules are shown by their SMILES.

Consider `O=C[C@H](O)[C@@H](O)[C@H](O[C@@H]1O[C@H](CO)[C@@H](O)[C@H](O)[C@H]1O)[C@H](O)CO` [cellobiose], for which the “insoluble glucans produced compared to the control mixture” value is recorded as “did not affect”.
